# Columns and labels:
# [1] = test system: patient derived organoids (PD3D Cell Culture); assay: Calculated IC50 in PD3D cell culture of the patient derived organoids; assay type: cell-based, human
# [2] = cells without a printed unit; cited from earlier work
smiles,measurement,setting,value
"CCCCCOC(=O)Nc1nc(=O)n([C@@H]2O[C@H](C)[C@@H](O)[C@H]2O)cc1F [Capecitabine (5-FU), Capecitabine]",Calculated IC50 PD3D Cell Culture,[1],Not Reached
same,Cmax,[2],2220 nM

# Reference: patent US12440528B2, “Methods of treating ovarian cancer with hemp extract” (Ecofibre USA Inc., priority 2021, dated 2025)
